Key:
Format in all cases: physicochemical
[1] = Stability of L-DHO for 18 h at 14° C. in rat serum; conditions: for concentration 1 5 μg/ml / Residue (%) / Concentration 2 20 μg/ml: Rat serum, 14° C.
Protocol: (§1) In order to simulate the conditions of the samples when they are waiting in the autosampler for the actual analysis the stability during 18 h at 14° C. was determined. For that reason the cell lysates were spiked and then treated with 30 μl 6 M KOH/100 μl lysate before the start of the analysis. Correspondingly, the serum samples were spiked and then deproteinized as described in 1.5.2. […] In serum samples the analyte is stable under these conditions. For these reasons only so many HPLC samples were prepared that the maximal length of stay in the autosampler was less than 18 h.

[2] = Stability of L-DHO for 18 h at 14° C. in human serum; conditions: for Residue (%) / concentration 1 5 μg/ml / Concentration 2 20 μg/ml: Human serum, 14° C.
Protocol: as §1

[3] = Stability of L-DHO standard stock solution; conditions: 1 mg L-DHO in 1 ml water, frozen at −20° C.
Protocol: (§2) A standard stock solution was prepared by dissolving 1 mg L-DHO in 1 ml water. Aliquots of 400 μl were frozen at −20° C. Stability of these solutions was guaranteed for at least 4 weeks. Defined amounts of the stock solution were added to the cell lysates and to human or rat serum and assayed to evaluate the linearity between the increase of the signal and the spiked L-DHO concentration. The precision and the accuracy of the method were investigated by using quality control (QC) samples with an L-DHO content in the low, the middle and the high concentration range of the signal/concentration linearity curve.

[4] = Stability of L-DHO in Jurkat cell lysates at −20° C.; conditions: Jurkat cells
Protocol: as §2
Cells were suspended in a defined medium volume and cell density of samples was determined via vital microscopy using Eosin. About 10×10^6 cells were removed, pelleted by 5 minute-centrifugation at 350×g and the supernatant was discarded. Lysis of the cells was done by resuspending the cell pellet in 500 μl 1.2 M HClO4. This mixture was transferred in 2.0 ml Eppendorf safe-lock caps and the protein was precipitated by 2 minutes high speed centrifugation. The supernatant was completely removed, transferred in glass vials and after addition of 500 μl chloroform thoroughly mixed by 2 minutes vortexing. Cellular lipids were extracted by chloroform following 10 minutes centrifugation (1502 g) at 10° C. The purified supernatant was collected in 2 ml Eppendorf-caps and stored at −20° C. until further used. For the HPLC analysis 100 μl of this supernatant were neutralized with 30 μl 6 M KOH. After shaking for about 5 sec the samples were stored on ice for 30 min. Thereafter they were centrifuged for 5 min at 15 000 rpm. From the clear supernatant 20 μl were used for the HPLC analysis.
(§3) L-DHO was stable under the above mentioned conditions in Jurkat cells over a period of at least 4 weeks. […] For these reasons it can be stated only that in rat and human serum samples L-DHO is definitely stable only for at least 1 week.

[5] = Stability of L-DHO in rat serum at −20° C.; conditions: for Residue (%) / concentration 1 5 μg/ml / Concentration 2 20 μg/ml: Rat serum
Protocol: as §2
(§4) In order to reduce the protein content […] serum were added to a Microcon filter (10 000 D, model 10, code 42407, Amicon) and centrifuged for 30 min at 13 000 rounds per minute (rpm). The flow through consisted of about 150 μl and contains the analyte L-DHO. From this liquid 20 μl were used for HPLC analysis.
as §3

[6] = Stability of L-DHO for 18 h at 14° C. in Jurkat cell lysates; conditions: for Residue (%) / concentration 1 20 μg/ml / Concentration 2 100 μg/ml: Jurkat cells, 14° C.
Protocol: as §1

[7] = Stability of L-DHO in human serum at −20° C.; conditions: for Residue (%) / concentration 1 5 μg/ml / Concentration 2 20 μg/ml: Human serum
Protocol: as §2, §4, §3

- concentration 1 5 μg/ml ([1]; 5 μg/ml, 0 h): 4.61 µg/mL
- Residue (%) ([1]; 5 μg/ml, 18 h): 107.6%
- concentration 1 5 μg/ml ([1]; 5 μg/ml, 18 h): 4.96 µg/mL
- Concentration 2 20 μg/ml ([1]; 20 μg/ml, 0 h): 19.99 µg/mL
- Residue (%) ([1]; 20 μg/ml, 0 h): 100%
- Concentration 2 20 μg/ml ([1]; 20 μg/ml, 18 h): 20.53 µg/mL
- Residue (%) ([1]; 20 μg/ml, 18 h): 102.7%
- stability of the analyte in serum samples ([1]; rat serum, 18 h at 14° C.): stable
- Residue (%) ([2]; 5 μg/ml, 0 h): 100%
- concentration 1 5 μg/ml ([2]; 5 μg/ml, 0 h): 3.34 µg/mL
- Residue (%) ([2]; 5 μg/ml, 18 h): 100.9%
- concentration 1 5 μg/ml ([2]; 5 μg/ml, 18 h): 3.37 µg/mL
- Concentration 2 20 μg/ml ([2]; 20 μg/ml, 0 h): 18.78 µg/mL
- Residue (%) ([2]; 20 μg/ml, 0 h): 100%
- Concentration 2 20 μg/ml ([2]; 20 μg/ml, 18 h): 22.09 µg/mL
- Residue (%) ([2]; 20 μg/ml, 18 h): 117.6%
- stability of the analyte in serum samples ([2]; human serum, 18 h at 14° C.): stable
- Stability of standard stock solution [3]: at least 4 weeks
- Residue (%) ([4]; 20 μg/ml, 0 days): 100%
- concentration 1 20 μg/ml ([4]; 20 μg/ml, 0 days): 19.34 µg/mL
- Residue (%) ([4]; 20 μg/ml, 7 days): 99.7%
- concentration 1 20 μg/ml ([4]; 20 μg/ml, 7 days): 19.28 µg/mL
- Residue (%) ([4]; 20 μg/ml, 29 days): 103.3%
- concentration 1 20 μg/ml ([4]; 20 μg/ml, 29 days): 19.98 µg/mL
- Concentration 2 100 μg/ml ([4]; 100 μg/ml, 0 days): 100.05 µg/mL
- Residue (%) ([4]; 100 μg/ml, 0 days): 100%
- Concentration 2 100 μg/ml ([4]; 100 μg/ml, 7 days): 99.09 µg/mL
- Residue (%) ([4]; 100 μg/ml, 7 days): 99.0%
- Concentration 2 100 μg/ml ([4]; 100 μg/ml, 14 days): 115.32 µg/mL
- Residue (%) ([4]; 100 μg/ml, 14 days): 115.3%
- Concentration 2 100 μg/ml ([4]; 100 μg/ml, 29 days): 99.35 µg/mL
- Residue (%) ([4]; 100 μg/ml, 29 days): 99.3%
- period over which L-DHO was stable ([4]; 2-3 freezing/thawing cycles): at least 4 weeks
- Residue (%) ([5]; 5 μg/ml, Time 0 (h)): 100%
- concentration 1 5 μg/ml ([5]; 5 μg/ml, Time 0 (h)): 4.30 µg/mL
- Residue (%) ([5]; 5 μg/ml, Time 7 (h)): 105.1%
- concentration 1 5 μg/ml ([5]; 5 μg/ml, Time 7 (h)): 4.52 µg/mL
- Residue (%) ([5]; 5 μg/ml, Time 14 (h)): 111.9%
- concentration 1 5 μg/ml ([5]; 5 μg/ml, Time 14 (h)): 4.81 µg/mL
- Residue (%) ([5]; 5 μg/ml, Time 21 (h)): 129.1%
- concentration 1 5 μg/ml ([5]; 5 μg/ml, Time 21 (h)): 5.55 µg/mL
- Concentration 2 20 μg/ml ([5]; 20 μg/ml, Time 0 (h)): 19.94 µg/mL
- Residue (%) ([5]; 20 μg/ml, Time 0 (h)): 100%
- Concentration 2 20 μg/ml ([5]; 20 μg/ml, Time 7 (h)): 19.62 µg/mL
- Residue (%) ([5]; 20 μg/ml, Time 7 (h)): 98.4%
- Concentration 2 20 μg/ml ([5]; 20 μg/ml, Time 14 (h)): 20.93 µg/mL
- Residue (%) ([5]; 20 μg/ml, Time 14 (h)): 105.0%
- Concentration 2 20 μg/ml ([5]; 20 μg/ml, Time 21 (h)): 22.33 µg/mL
- Residue (%) ([5]; 20 μg/ml, Time 21 (h)): 112.2%
- period over which L-DHO is definitely stable ([5]; rat serum): at least 1 week
- Residue (%) ([6]; 20 μg/ml, 0 h): 100%
- concentration 1 20 μg/ml ([6]; 20 μg/ml, 0 h): 19.96 µg/mL
- Residue (%) ([6]; 20 μg/ml, 18 h): 93.2%
- concentration 1 20 μg/ml ([6]; 20 μg/ml, 18 h): 18.60 µg/mL
- Concentration 2 100 μg/ml ([6]; 100 μg/ml, 0 h): 100.02 µg/mL
- Residue (%) ([6]; 100 μg/ml, 0 h): 100%
- Concentration 2 100 μg/ml ([6]; 100 μg/ml, 18 h): 97.43 µg/mL
- Residue (%) ([6]; 100 μg/ml, 18 h): 97.4%
- reduction of L-DHO content ([6]; cells, 18 h at 14° C.): ≤ 7%
- Residue (%) ([7]; 5 μg/ml, Time 0 (h)): 100%
- concentration 1 5 μg/ml ([7]; 5 μg/ml, Time 0 (h)): 4.67 µg/mL
- Residue (%) ([7]; 5 μg/ml, Time 8 (h)): 103.0%
- concentration 1 5 μg/ml ([7]; 5 μg/ml, Time 8 (h)): 4.81 µg/mL
- Residue (%) ([7]; 5 μg/ml, Time 65 (h)): 104.3%
- concentration 1 5 μg/ml ([7]; 5 μg/ml, Time 65 (h)): 4.87 µg/mL
- Concentration 2 20 μg/ml ([7]; 20 μg/ml, Time 0 (h)): 20.22 µg/mL
- Residue (%) ([7]; 20 μg/ml, Time 0 (h)): 100%
- Concentration 2 20 μg/ml ([7]; 20 μg/ml, Time 8 (h)): 20.38 µg/mL
- Residue (%) ([7]; 20 μg/ml, Time 8 (h)): 100.8%
- Concentration 2 20 μg/ml ([7]; 20 μg/ml, Time 65 (h)): 23.20 µg/mL
- Residue (%) ([7]; 20 μg/ml, Time 65 (h)): 114.7%
- period over which L-DHO is definitely stable ([7]; human serum): at least 1 week
Compound: O=C1C[C@@H](C(=O)O)NC(=O)N1 [L-DHO, L-dihydroorotic acid]

From US6545006B1, “Process for obtaining L-dihydroorotic acid and use thereof” (Aventis Pharma Deutschland GmbH, priority 1997, dated 2003)
